What was measured:
EOL-1 cells = experiment: Combination with BCL2 inhibitor ABT-199 in AML cell lines, 7-day cell proliferation assay; type: cell-based; conditions: Homo sapiens, EOL1, 168 h; EOL-1, treatment duration 7 Days; single agent or combination; read-out: Absolute IC50 (cell proliferation)
Protocol: (§1) On day 1, plate GDM-1 [ATCC®, maintained throughout in GDM-1 assay medium: RPMI-1640 medium/20% heat-inactivated FBS (GIBCO®)] and EOL-1 cells [ATCC®, maintained throughout in EOL-1 assay medium: RPMI-1640 medium/10% heat-inactivated FBS (GIBCO®)] at 4000 and 10000 cells/well (100 μL/well) respectively, in a 96-well assay plate (BD FALCON® 35-3219). Incubate the plates in a 37° C. incubator (5% CO2) for 18-24 hr. On day 2, prepare 2.0% DMSO with assay medium (as indicated above or RPMI-1640/20% heat-inactivated FBS and RPMI-1640/10% FBS for GDM-1 and EOL-1, respectively) and add 100 μL to columns 3-12 in a preparation plate. Prepare test compounds ABT-199 at 10 μM in 2% DMSO and PRMT5 inhibitor Example 1 at 25 μM in 2% DMSO and dispense into wells A2 and B2, respectively, followed by serial dilution (1:3, 10 points) to wells A11 and B11, respectively. For combinational treatment, serially dilute test compound examples at 1:2 in assay medium (as indicated above or RPMI-1640/20% heat-inactivated FBS and RPMI-1640/10% FBS for GDM-1 and EOL-1, respectively) in wells C2-C11 (0.1 μM) to H2-H11, then serially dilute test compound ABT-199 1:3 from C2-H2 (1.0 μM) to C11-H11. […] Incubate plates for 10-15 min at room temperature before reading. Measure luminescence using the PERKIN-ELMER® ENVISION® Multi-Label Reader. […]

GDM-1 cells = experiment: Combination with BCL2 inhibitor ABT-199 in AML cell lines, 4-day cell proliferation assay; type: cell-based; conditions: Homo sapiens, 96 h; GDM-1, treatment duration 4 Days; single agent or combination; read-out: Absolute IC50 (cell proliferation)
Protocol: as §1

Will-2 (DLBCL) cells = experiment: Xenograft tumor model, DLBCL (WILL-2); type: in vivo, mouse; conditions: oral gavage
Protocol: The purpose of this assay is to measure in a mouse model of cancer the reduction in tumor volume in response to test compound administration.
Grow A375 (melanoma) cells in DMEM/High glucose (HYCLONE™ cat. # SH30022) with 10% HI FBS (GIBCO® cat. #10082-147). Grow Will-2 (DLBCL) cells in RPMI 1640 with L-glutamine and 20% heat inactivated FBS. Grow Namalwa (Burkitt's lymphoma) cells (ATCC) in RPMI 1640 media supplemented with L-glutamine, 25 mM HEPES (GIBCO® 22400-089), 1 mM sodium pyruvate and 7.5% FBS. Grow Molt 4 cells in RPMI 1640 with L-glutamine, 25 mM HEPES [GIBCO 22400-089], 1 mM sodium pyruvate, and 10% FBS. Harvest cells and inject subcutaneously onto the rear flank of nude mice (A375: 5×10^6 cells/animal, mixed 1:1 with MATRIGEL®; Will-2; 1×10^7 cells/animal; Namalwa: 2×10^6 cells/animal; Molt 4: : 5×10^6 cells/animal, mixed 1:1 with MATRIGEL®). When tumors are established (approximately 200 mm^3, 7-21 days after implant), randomize animals, and group them into control and test groups. Formulate the test compound in 1% HEC/0.25% TWEEN®-80/0.05% Antifoam. Administer test compound and vehicles by oral gavage. Determine tumor response by tumor volume measurement (caliper) performed twice a week during the course of treatment and report as the percent inhibition of tumor volume versus the vehicle control group.

Q: Which IC50 (EOL-1 cells) does the source give for Nc1ncnc2c1ccn2[C@@H]1O[C@H]([C@H](O)c2ccc(Cl)cc2)[C@@H](O)[C@H]1O [Example 1, (2R,3R,4S,5R)-2-(4-Aminopyrrolo[2,3-d]pyrimidin-7-yl)-5-[(R)-(4-chlorophenyl)-hydroxy-methyl]tetrahydrofuran-3,4-diol] here?
A: The IC50 was 6 nM.

Q: And the IC50 (GDM-1 cells)?
A: Its IC50 is 224 nM.

Q: And the tumor regression (Will-2 (DLBCL) cells; 2 mg/kg BID for 14 days)?
A: Its tumor regression is 50%.

Q: What about the “percent inhibition of tumor volume versus vehicle” value (Will-2 (DLBCL) cells; 5 mg/kg QD for 14 days) of the same compound?
A: The value was 74%.

Reference: patent US9840532B2, “5′-substituted nucleoside compounds” (Eli Lilly and Company, priority 2015, dated 2017)
